Reference: patent US6369088B2, “Substituted 3-phenyl-5-alkoxy-1,3,4-oxadiazol-2-ones, their preparation and their use as pharmaceuticals” (Aventis Pharma Deutschland GmbH, priority 2000, dated 2002)
Counter-ions that a name gives are not always drawn. Like-named read-outs stand apart in the source and are kept apart here.

Experiments:
[1] = target: T1, hormone-sensitive lipase (HSL) (Rattus norvegicus, UniProt P15304); test: HSL enzyme assay: [3H]trioleoylglycerol hydrolysis by partially purified HSL; format: biochemical
T1 construct: Isolated rat fat cells were obtained from epididymal adipose tissue; from tissue; host or cells: rat epididymal adipose tissue (isolated fat cells, Wistar rats)
T1 sequence (P15304 1-768 isoform P15304-2): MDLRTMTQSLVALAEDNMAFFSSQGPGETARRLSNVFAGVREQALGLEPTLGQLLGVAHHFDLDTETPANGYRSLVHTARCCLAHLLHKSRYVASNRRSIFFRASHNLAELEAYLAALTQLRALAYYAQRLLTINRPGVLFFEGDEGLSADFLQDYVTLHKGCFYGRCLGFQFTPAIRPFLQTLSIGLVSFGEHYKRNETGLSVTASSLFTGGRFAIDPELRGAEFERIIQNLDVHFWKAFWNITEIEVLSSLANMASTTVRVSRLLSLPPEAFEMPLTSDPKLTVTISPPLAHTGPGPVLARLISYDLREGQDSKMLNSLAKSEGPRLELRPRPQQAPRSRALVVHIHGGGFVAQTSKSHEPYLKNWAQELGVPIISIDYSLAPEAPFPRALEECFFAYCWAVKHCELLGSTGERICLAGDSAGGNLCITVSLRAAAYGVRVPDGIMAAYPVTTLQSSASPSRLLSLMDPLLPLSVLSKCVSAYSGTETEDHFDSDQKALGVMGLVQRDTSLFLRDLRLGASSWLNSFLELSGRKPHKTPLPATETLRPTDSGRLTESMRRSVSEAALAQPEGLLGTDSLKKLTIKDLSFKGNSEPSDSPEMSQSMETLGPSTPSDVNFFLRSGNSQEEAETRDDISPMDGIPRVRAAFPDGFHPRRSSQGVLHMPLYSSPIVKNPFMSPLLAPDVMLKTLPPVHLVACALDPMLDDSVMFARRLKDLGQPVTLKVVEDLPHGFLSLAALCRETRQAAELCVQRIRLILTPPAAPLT
Procedure: The effect of the compounds of the invention on HSL was tested using the following enzyme assay system:
Preparation of Partially Purified HSL:
The fat cells from 10 rats were washed three times by flotation with 50 ml each time of homogenization buffer ([…] tris/HCl, pH 7.4, 0.25 M sucrose, 1 mM EDTA, 1 mM DTT, 10 μg/ml leupeptin, 10 μg/ml antipain, 20 μg/ml pepstatin) and finally taken up in 10 ml of homogenization buffer. The fat cells were homogenized in a Teflon-in-glass homogenizer (Braun-Melsungen) by 10 strokes at 1500 rpm and 15° C. The homogenate was centrifuged (Sorvall SM24 tubes, 5000 rpm, 10 min, 4° C.). The subnatant between the fatty layer at the top and the pellet was removed and the centrifugation was repeated. The subnatant resulting therefrom was recentrifuged (Sorvall SM24 tubes, 20000 rpm, 45 min, 4° C.). […] After the mixture had been incubated at 4° C. for 60 min (shaking at 15-min intervals), it was centrifuged (Sorvall SM24 tubes, 3000 rpm, 10 min, 4° C.). The supernatant was adjusted to pH 5.2 by adding glacial acetic acid and incubated at 4° C. for 30 min. The precipitates were collected by centrifugation (Sorvall SS34, 12000 rpm, 10 min, 4° C.) and suspended in 2.5 ml of 20 mM tris/HCl, pH 7.0,1 mM EDTA, 65 mM NaCl, 13% sucrose, 1 mM DTT, 10 μg/ml leupeptin/pepstatin/antipain. The suspension was dialyzed against 25 mM tris/HCl, pH 7.4, 50% glycerol, 1 mM DTT, 10 μg/ml leupeptin, pepstatin, antipain at 4° C. overnight and then loaded onto a hydroxy apatite column (0.1 g per 1 ml of suspension, equilibrated with 10 mM potassium phosphate, pH 7.0, 30% glycerol, 1 mM DTT). The column was washed with four volumes of equilibration buffer at a flow rate of 20 to 30 ml/h. The HSL was eluted with one volume of equilibration buffer containing 0.5 M potassium phosphate, and then dialyzed (see above) and concentrated 5- to 10-fold by ultrafiltration (Amicon Diaflo PM 10 filter) at 4° C. The partially purified HSL can be stored at −70° C. for 4 to 6 weeks.
To prepare the substrate, 25-50 μCi of [^3H]trioleoylglycerol (in toluene), 6.8 μmol of unlabeled trioleoylglycerol and 0.6 mg of phospholipids (phosphatidylcholine/phosphatidylinositol 3:1 w/v) were mixed, dried with N2 and then taken up in 2 ml of 0.1 M KPi (pH 7.0) by ultrasonic treatment (Branson 250, microtip, setting 1-2, 2×1 min at 1-min intervals). After addition of 1 ml of KPi and renewed ultrasonic treatment (4×30 sec on ice in 30-sec intervals), 1 ml of 20% BSA (in KPi) was added (final concentration of trioleoylglycerol 1.7 mM). For the reaction, 100 μl of substrate solution were pipetted into 100 μl of HSL solution (HSL prepared as above, diluted in 20 mM KPi, pH 7.0, 1 mM EDTA, 1 mM DTT, 0.02% BSA, 20 μg/ml pepstatin, 10 μg/ml leupeptin) and incubated at 37° C. for 30 min. […] After phase separation, one equivalent of the upper phase (1 ml) was removed and the radioactivity was determined by liquid scintillation measurement.
Substances were normally tested in four independent mixtures. The inhibition of the HSL enzymatic activity by a test substance was determined by comparison with an uninhibited control reaction. The IC50 was calculated via an inhibition plot with at least 10 concentrations of the test substance. The data was analyzed using the software package GRAPHIT, Elsevier-BIOSOFT.

[2] = partially purified HSL from rat fat cells, [3H]trioleoylglycerol substrate, 37° C., 30 min, read-out: IC50

With `CCCCc1ccc(S(=O)(=O)Nc2ccc(-n3nc(OC)oc3=O)cc2)cc1` [Example 34, 5-Methoxy-3-(4-(4-butylphenylsulfonylamino)phenyl)-3H-(1,3,4)oxadiazol-2-one] the IC50 [1, 2] was 1000 nM and the melting point was 135 °C.
In the case of `COc1nn(-c2ccc(NS(=O)(=O)c3cccc4ccccc34)c(C)c2)c(=O)o1` [Example 38, 5-Methoxy-3-(4-(1-naphthylsulfonylamino)-3-methylphenyl)-3H-(1,3,4)oxadiazol-2-one], the IC50 [1, 2] is reported as 1000 nM and the melting point is reported as 123 °C.
Work on `COc1nn(-c2ccc(NC(=O)c3ccccc3F)cc2)c(=O)o1` [Example 97, 2-Fluoro-N-[4-(5-methoxy-2-oxo-[1,3,4]oxadiazol-3-yl)phenyl]-benzamide] yielded an IC50 [1, 2] of 30 nM.
With `COc1nn(-c2ccc(NC(=O)c3ccc(C(C)(C)C)cc3)cc2)c(=O)o1` [Example 69, 5-Methoxy-3-(4-(4-t-butylbenzoylamino)phenyl)-3H-(1,3,4)oxadiazol-2-one] the IC50 [1, 2] was 30 nM.
“5-Methoxy-3-[3-[(3-trifluoromethylphenoxy)benzylamino]phenyl]-3H-[1,3,4]oxadiazol-2-one trifluoroacetate [Example 166]” showed an IC50 [1, 2] of 200 nM.
For `COc1nn(-c2ccc(NS(=O)(=O)C=Cc3ccccc3)c(C)c2)c(=O)o1` [Example 39, 5-Methoxy-3-(4-(2-phenylethenylsulfonylamino)-3-methylphenyl)-3H-(1,3,4)oxadiazol-2-one], the IC50 [1, 2] was 1000 nM and the melting point was 129 °C.
Molecule `CCCCCC=CCCCNc1cccc(-n2nc(OC)oc2=O)c1` [Example 171, 3-(3-Dec-4-enylaminophenyl)-5-methoxy-3H-[1,3,4]oxadiazol-2-one trifluoroacetate] has an IC50 [1, 2] of 600 nM.
`CCCCCCCc1ccc(C(=O)Nc2ccc(-n3nc(OC)oc3=O)cc2)cc1` [Example 33, 5-Methoxy-3-(4-(4-heptylbenzoylamino)phenyl)-3H-(1,3,4)oxadiazol-2-one] showed an IC50 [1, 2] of 200 nM and a melting point of 155 °C.
With `COc1nn(-c2ccc(NC(=O)OCc3ccccc3)c(C)c2)c(=O)o1` [Example 41, 5-Methoxy-3-(4-(benzyloxycarbonylamino)-3-methylphenyl)-3H-(1,3,4)oxadiazol-2-one] the IC50 [1, 2] was 100 nM.
For `COc1nn(-c2ccc(-n3c(C)ccc3C)c(C)c2)c(=O)o1` [Example 54, 5-Methoxy-3-(4-(2,5-dimethylpyrrol-1-yl)-3-methylphenyl)-3H-(1,3,4)oxadiazol-2-one], the IC50 [1, 2] was 1000 nM.
`COc1nn(-c2cccc(NC(=O)Nc3c(OC)cccc3OC)c2)c(=O)o1` [Example 128, 1-(2,6-Dimethoxyphenyl)-3-[3-(5-methoxy-2-oxo-[1,3,4]oxadiazol-3-yl)phenyl]urea] showed an IC50 [1, 2] of 600 nM.
For `CCCCCCCc1ccc(C(=O)Nc2ccc(-n3nc(OC)oc3=O)c(Cl)c2)cc1` [Example 71, 5-Methoxy-3-(2-chloro-4-(4-heptylbenzoylamino)phenyl)-3H-(1,3,4)oxadiazol-2-one], the IC50 [1, 2] was 20 nM and the melting point was 135 °C.
Work on `COc1nn(-c2cccc(OCc3ccc(F)cc3)c2[N+](=O)[O-])c(=O)o1` [Example 22, 5-Methoxy-3-(3-(4-fluorobenzyloxy)-2-nitrophenyl)-3H-(1,3,4)oxadiazol-2-one] yielded an IC50 [1, 2] of 1000 nM and a melting point of 99 °C.
With `CCOc1nn(-c2ccc(NC(=O)OCc3ccccc3)c(C)c2)c(=O)o1` [Example 74, 5-Ethoxy-3-(3-methyl-4-benzyloxycarbonylaminophenyl)-3H-(1,3,4)oxadiazol-2-one] the IC50 [1, 2] was 40 nM and the melting point was 94 °C.
Molecule `COc1nn(-c2ccc(NCc3ccc(C#N)cc3)cc2)c(=O)o1` [Example 130, 4-[[4-(5-Methoxy-2-oxo-[1,3,4]oxadiazol-3-yl)phenylamino]methyl]-benzonitrile tri-fluoroacetate] has an IC50 [1] of 500 nM.
`COc1nn(-c2ccc(NC(=O)OCc3ccccc3)c(OCc3ccc(F)cc3)c2)c(=O)o1` [Example 60, 5-Methoxy-3-(3-(4-fluorobenzyloxy)-4-benzyloxycarbonylaminophenyl)-3H-(1,3,4)oxadiazol-2-one] showed an IC50 [1, 2] of 200 nM.
Molecule `COc1nn(-c2ccc(NC(=O)OCc3ccccc3Cl)c(C)c2)c(=O)o1` [Example 62, 5-Methoxy-3-(3-methyl-4-(2-chlorobenzyloxycarbonylamino)phenyl)-3H-(1,3,4)oxadiazol-2-one] has an IC50 [1, 2] of 300 nM and a melting point of 161 °C.
Work on `CCCCCCOc1ccc(CNc2ccc(-n3nc(OC)oc3=O)cc2)cc1` [Example 142, 3-[4-(4-Hexyloxybenzylamino)phenyl]-5-methoxy-3H-[1,3,4]oxadiazol-2-one trifluoroacetate] yielded an IC50 [1, 2] of 200 nM.
`COc1nn(-c2ccc(NS(=O)(=O)c3ccc(OC)c(OC)c3)cc2)c(=O)o1` [Example 92, 3,4-Dimethoxy-N-[4-(5-methoxy-2-oxo-[1,3,4]oxadiazol-3-yl)-phenyl]benzenesulfon-amide] gave an IC50 [1, 2] of 250 nM.
Work on `COc1nn(-c2cccc(NCc3ccccc3)c2)c(=O)o1` [Example 58, 5-Methoxy-3-(3-benzylaminophenyl)-3H-(1,3,4)oxadiazol-2-one] yielded an IC50 [1, 2] of 800 nM.
In the case of `COc1nn(-c2ccc(NC(=O)CCCC(=O)c3ccccc3)cc2)c(=O)o1` [Example 116, 5-Oxo-5-phenylpentanoic acid [4-(5-methoxy-2-oxo-[1,3,4]-oxadiazol-3-yl)phenyl]amide], the IC50 [1, 2] is reported as 100 nM.
`COc1nn(-c2ccc(NC(=O)Cc3ccc(Cl)cc3)cc2)c(=O)o1` [Example 30, 5-Methoxy-3-(4-(4-chlorophenylacetylamino)phenyl)-3H-(1,3,4)oxadiazol-2-one] gave an IC50 [1, 2] of 1000 nM.
`CCCCCCCCCCC(=O)Nc1ccc(-n2nc(OC)oc2=O)cc1` [Example 107, Undecanoic acid [4-(5-methoxy-2-oxo-[1,3,4]oxadiazol-3-yl)phenyl]amide] gave an IC50 [1, 2] of 120 nM.
For `COc1nn(-c2ccc(NCC3CCCCC3)cc2)c(=O)o1` [Example 139, 3-[4-(Cyclohexylmethylamino)phenyl]-5-methoxy-3H-[1,3,4]oxadiazol-2-one], the IC50 [1, 2] was 400 nM.
Work on `COc1nn(-c2ccc(NCc3ccc(OCc4ccccc4)cc3)cc2)c(=O)o1` [Example 136, 3-[4-(4-Benzyloxybenzylamino)phenyl]-5-methoxy-3H-[1,3,4]oxadiazol-2-one trifluoroacetate] yielded an IC50 [1, 2] of 500 nM.
In the case of `CCOc1ccccc1NC(=O)Nc1ccc(-n2nc(OC)oc2=O)cc1` [Example 152, 1-(2-Ethoxyphenyl)-3-[4-(5-methoxy-2-oxo-[1,3,4]oxadiazol-3-yl)phenyl]urea], the IC50 [1, 2] is reported as 200 nM.
